# Values of other authors in patent US6645392B2, “Method of removing wrinkles from fabric” (The Procter & Gamble Company, priority 2000, dated 2003).
# Details: not given
row,Structure (SMILES),solubility in water
1,"ClC=CC[N+]12CN3CN(CN(C3)C1)C2.[Cl-] [Dowicil 200, 1-(3-Chlorallyl)-3,5,7-triaza-1-azoniaadamantane chloride]",freely soluble in water

# Same assay, conditions: in water
row,Structure (SMILES),water solubility
1,OCCc1ccccc1 [2-phenylethanol],about 2%
2,"O=[N+]([O-])C1(Br)COCOC1 [Bronidox L, 5-bromo-5-nitro-1,3-dioxane]",about 0.46%
3,"O=[N+]([O-])C(Br)(CO)CO [Bronopol, 2-bromo-2-nitropropane-1,3-diol]",about 25%
4,"CC(C)(O)C(Cl)(Cl)Cl [chlorobutanol, 1,1,1-Trichloro-2-methylpropan-2-ol]",about 0.8%
5,[Na+].[O-][n+]1ccccc1[S-] [sodium pyrithione],about 50%

# The remaining lines, values ahead:
row,water solubility,Structure (SMILES)
1,about 2.67%,OCCOc1ccccc1 [2-phenoxyethanol]
2,more than 50%,"CC1(C)C(=O)N(CO)C(=O)N1CO [DMDM hydantoin, 1,3-bis(hydroxymethyl)-5,5-dimethyl-2,4-imidazolidinedione]"
3,about 4%,OCc1ccccc1 [benzyl alcohol]
4,about 1.8%,"[H]/N=C(\N/C(=N/[H])NCCCCCCNC(=N)NC(=N)Nc1ccc(Cl)cc1)Nc1ccc(Cl)cc1 [chlorhexidine diacetate, 1,1′-hexamethylene bis(5-(p-chlorophenyl)biguanide), reference compound]"
5,about 70%,"[H]/N=C(\N/C(=N/[H])NCCCCCCNC(=N)NC(=N)Nc1ccc(Cl)cc1)Nc1ccc(Cl)cc1 [chlorhexidine digluconate, 1,1′-hexamethylene bis(5-(p-chlorophenyl)biguanide), reference compound]"
